Measured values as given in patent US8927533B2, “Thio derivatives bearing lactams as potent HDAC inhibitors and their uses as medicaments” (SIGMA-TAU Industrie Farmaceutiche Riunite S.p.A., priority 2011, dated 2015).
Each block holds one compound with its values, some of them ahead of it.

Tests used:
[1] = test system: HCT116 colon cancer cells; experiment: Cytotoxicity, sulphorodamine B, HCT116; settings: Homo sapiens, HCT-116, read-out: HCT116 cell line IC50 (μM)
Protocol: (§2) The plates were incubated for 24 h at 37° C., after which they were washed 3 times by removal of the supernatant and addition of PBS. The plates were then incubated for further 48 h at 37° C. 200 μl PBS and 50 μl of cold 80% TCA were added and the plates were incubated on ice for at least 1 h. TCA was removed and the plates were washed 3 times by immersion in distilled-water. They were then dried on paper at 40° C. for 5 min. 200 μl of 0.4% sulphorodamine B in 1% acetic acid were added. The plates were incubated at room temperature for further 30 min. Sulphorodamine B was removed, and the plates were washed 3 times by immersion in 1% acetic acid and were dried on paper and at 40° C. for 5 min. Then 200 μl Tris 10 mM were added. The plates were kept under magnetic stirring for 20 min. Cell survival was determined by means of optical density by a Multiskan spectrofluorimeter at 540 nm. The amount of cells killed was calculated as the percentage decrease in sulphorodamine B binding compared to control cultures.

[2] = test system: NCI-H460 non-small cell lung carcinoma cells; experiment: Cytotoxicity, sulphorodamine B, H460; settings: Homo sapiens, NCI-H460, read-out: H460 cell line IC50 (μM)
Protocol: as §2

NCI-H460 NSCLC = experiment: Antitumour activity, NCI-H460 xenograft (Example 48)
Protocol: (§3) The tested derivatives were administered as a suspension in PBS/DMSO/Cremophor EL (Sigma): 85/10/5 (volume percentage). The antitumour activity was determined by measuring tumour diameters with a Vernier calliper according to the Formula TV=d^2×D/2
(§4) where d and D are the shortest and longest diameters, respectively.
(§5) When tumours reached a volume of about 1000 mm^3, mice were sacrificed by cervical dislocation. The efficacy of the drug was assessed as the tumour volume inhibition according to the Formula reported underneath:
(§6) Body weight recording was carried out to evaluate body weight loss as calculated in the equation underneath:
(§7) Wherein BW day x corresponds to the mean weight at day x of the experiment meanwhile BW day 1 corresponds to the mean weight at the first day of the experiment.

HCT116 colon cancer = experiment: Antitumour activity, HCT116 xenograft, oral (Example 49); format: in vivo, mice; settings: 100 mg/10 ml/kg p.o., PEG200/DMSO/Cremophor EL
Description: (§1) The experiment of example 48 was repeated with another compound on mice animal model developing HCT116 colon cancer as described above or A2780 ovarian cancer, and administering the drugs solubilised in orally in PEG200/DMSO/Cremophor EL (Sigma): 85/10/5 (volume percentage).

[3] = test system: H929 multiple myeloma cells; experiment: Antitumour activity, H929 xenograft (Example 48); format: in vivo, CD1 nude mice; settings: 100 mg/10 ml/kg i.p., qd×5/w×3w
Protocol: as §3, §4, §5, §6, §7

A2780 ovarian cancer = experiment: Antitumour activity, A2780 xenograft, oral (Example 49); format: in vivo, mice; settings: 100 mg/10 ml/kg p.o., PEG200/DMSO/Cremophor EL
Description: as §1

[4] = test system: K562 chronic myeloid leukemia cells; experiment: Cytotoxicity extended panel, K562; format: cell-based; settings: Homo sapiens, suspension cells, 72 h
Protocol: Cells were seeded in 96-well tissue culture plates at approximately 10% confluence. They were allowed to attach and recover for at least 24 h. Compounds of the present invention were then added to each well at various concentrations in order to define cell survival inhibition IC50. The plates were incubated for 72 h at 37° C., after which time they were washed 3 times by removal of the supernatant. 200 μl of PBS and 50 μl of cold 80% TCA were added and the plates were incubated on ice for at least 1 h. TCA was removed and the plates were washed 3 times by immersion in distilled water. They were then dried on paper at 40° C. for 5 min. 200 μl of 0.4% sulphorodamine B in 1% acetic acid were added. The plates were incubated at room temperature for further 30 min. Sulphorodamine B was removed, and the plates were washed 3 times by immersion in 1% acetic acid and were dried on paper at 40° C. for 5 min. Then 200 μl Tris 10 mM were added. The plates were kept under magnetic stirring for 20 min. Cell survival was determined by means of optical density by a Multiskan spectrofluorimeter at 540 nm. The amount of cells killed was calculated as the percentage decrease in sulphorodamine B binding compared to control cultures. The IC50 values (reported in Table 5) were calculated with the “ALLFIT” program. […]

[5] = test system: HCT116 colon cancer cells; experiment: Antitumour activity, HCT116 xenograft (Example 48); format: in vivo, CD1 nude mice; settings: 100 mg/10 ml/kg p.o., qd×5/w×3w
Protocol: as §3, §4, §5, §6, §7

[6] = 100 mg/10 ml/kg i.p., qd×5/w×3w

SMILES: CC(=O)SCCCCC[C@H](NC(=O)[C@H]1C(=O)NC[C@@H]1c1ccccc1)C(=O)Nc1ccccc1 (relative stereo) [Example 19, Thioacetic acid S—{(S)-6-[((3R*,4S*)-2-oxo-4-phenyl-pyrrolidine-3-carbonyl)-amino]-6-phenylcarbamoyl-hexyl}ester]
IC50 [1]: < 0.5 µM | IC50 [2]: < 0.5 µM

SMILES: CC(=O)SCCCCC[C@H](NC(=O)[C@H]1C(=O)NC[C@H]1c1ccccc1)C(=O)Nc1ccccc1 (relative stereo) [Example 20, Thioacetic acid S—{(S)-6-[((3R*,4R*)-2-oxo-4-phenyl-pyrrolidine-3-carbonyl)-amino]-6-phenylcarbamoyl-hexyl}ester]
IC50 [1]: 0.5 to 1 µM

SMILES: CC(=O)SCCCCC[C@H](NC(=O)C1CCCNC1=O)C(=O)Nc1ccccc1 (stereo in doubt) [Example 22, Thioacetic acid S—{(S)-6-[(R*)-(2-oxo-piperidine-3-carbonyl)-amino]-6-phenylcarbamoyl-hexyl}ester]
IC50 [1]: 1 to 10 µM

SMILES: N.N.[Cl][Pt][Cl] [Cisplatin]
TVI % (NCI-H460 NSCLC; 2 mg/10 ml/kg i.p., q4d/w×3w): 56%

BWL % (HCT116 colon cancer): 0%
SMILES: CC(=O)SCCCCCCC(=O)Nc1ccccc1 [Compound A, Thioacetic acid S-(6-phenylcarbamoyl-hexyl)ester]
TVI % (HCT116 colon cancer): 11%

SMILES: CC(=O)SCCCCC[C@H](NC(=O)[C@@H]1CC(=O)N1)C(=O)Nc1ccccc1 [Example 1, Thioacetic acid S—{(S)-6-[((S)-4-oxo-azetidine-2-carbonyl)-amino]-6-phenylcarbamoyl-hexyl}ester]
IC50 [2]: < 0.5 µM

SMILES: CC(=O)SCCCCC[C@H](NC(=O)[C@@H]1CCCC(=O)N1)C(=O)NCCc1cccc(C)c1 [Example 5, Thioacetic acid S—[(S)-6-[((S)-6-oxo-piperidine-2-carbonyl)-amino]-6-(2-m-tolyl-ethylcarbamoyl)-hexyl]ester]
IC50 [2]: 1 to 10 µM

SMILES: CC(=O)SCCCCC[C@H](NC(=O)[C@H]1CCC(=O)N1C)C(=O)Nc1cccc(C)c1 [Example 6, Thioacetic acid S—{(S)-6-[((R)-1-methyl-5-oxo-pyrrolidine-2-carbonyl)-amino]-6-m-tolylcarbamoyl-hexyl}ester]
IC50 [2]: < 0.5 µM

SMILES: CC(=O)SCCCCC[C@H](NC(=O)[C@@H]1CCC(=O)N1)C(=O)Nc1cccc(C)c1 [Example 7, Thioacetic acid S—{(S)-6-[((S)-5-oxo-pyrrolidine-2-carbonyl)-amino]-6-m-tolylcarbamoyl-hexyl}ester]
IC50 [2]: < 0.5 µM

SMILES: CC(=O)SCCCCC[C@H](NC(=O)[C@H]1CCC(=O)N1)C(=O)Nc1cccc(C)c1 [Example 8, Thioacetic acid S—{(S)-6-[((R)-5-oxo-pyrrolidine-2-carbonyl)-amino]-6-m-tolylcarbamoyl-hexyl}ester]
IC50 [2]: < 0.5 µM

SMILES: CC(=O)SCCCCC[C@H](NC(=O)[C@@H]1CC=CC(=O)N1)C(=O)Nc1ccccc1 [Example 10, Thioacetic acid S—{(S)-6-[((S)-6-oxo-1,2,3,6-tetrahydro-pyridine-2-carbonyl)-amino]-6-phenylcarbamoyl-hexyl}ester]
IC50 [2]: < 0.5 µM

SMILES: CC(=O)SCCCCC[C@H](NC(=O)[C@@H]1CCC(=O)N1)C(=O)Nc1ccccc1 [Example 11, Thioacetic acid S—{(S)-6-[((S)-5-oxo-pyrrolidine-2-carbonyl)-amino]-6-phenylcarbamoyl-hexyl}ester]
IC50 [2]: < 0.5 µM

SMILES: CC(=O)SCCCCC[C@H](NC(=O)[C@H]1CCCC(=O)N1)C(=O)Nc1ccccc1 [Example 13, Thioacetic acid S—{(S)-6-[((R)-6-oxo-piperidine-2-carbonyl)-amino]-6-phenylcarbamoyl-hexyl}ester]
IC50 [2]: < 0.5 µM

SMILES: CC(=O)SCCCCC[C@H](NC(=O)[C@@H]1CCCC(=O)N1)C(=O)Nc1ccc(C)cc1 [Example 15, Thioacetic acid S—{(S)-6-[((S)-6-oxo-piperidine-2-carbonyl)-amino]-6-p-tolylcarbamoyl-hexyl}ester]
IC50 [2]: < 0.5 µM

SMILES: CC(=O)SCCCCC[C@H](NC(=O)[C@@H]1CCCC(=O)N1)C(=O)Nc1cccc(C)c1 [Example 16, Thioacetic acid S—{(S)-6-[((S)-6-oxo-piperidine-2-carbonyl)-amino]-6-m-tolylcarbamoyl-hexyl}ester]
IC50 [2]: < 0.5 µM

SMILES: CC(=O)SCCCCC[C@H](NC(=O)[C@@H]1CCCC(=O)N1)C(=O)NC1CCCC1 [Example 17, Thioacetic acid S—{(S)-6-[((S)-6-oxo-piperidine-2-carbonyl)-amino]-6-cyclopentylcarbamoyl-hexyl}ester]
IC50 [1]: 1 to 10 µM

SMILES: CC(=O)SCCCCC[C@H](NC(=O)[C@H]1CCC(=O)N1)C(=O)Nc1cccc(C(F)(F)F)c1 [Example 18, Thioacetic acid S—[(S)-6-[((R)-5-oxo-pyrrolidine-2-carbonyl)-amino]-6-(3-trifluoromethyl-phenylcarbamoyl)-hexyl]ester]
IC50 [2]: < 0.5 µM

SMILES: CCOC(=S)OCCCCC[C@H](NC(=O)[C@@H]1CCCC(=O)N1)C(=O)Nc1ccccc1 [Example 41, Thiocarbonic acid ethyl ester {(S)-6-[((S)-6-oxo-piperidine-2-carbonyl)-amino]-6-phenylcarbamoyl-hexyl}ester]
IC50 [2]: 0.5 to 1 µM

SMILES: CCOC(=S)OCCCCC[C@H](NC(=O)[C@H]1CCC(=O)N1)C(=O)Nc1ccccc1 [Example 42, Thiocarbonic acid ethyl ester {(S)-6-[((R)-5-oxo-pyrrolidine-2-carbonyl)-amino]-6-phenylcarbamoyl-hexyl}ester]
IC50 [2]: < 0.5 µM

SMILES: CC(C)C(=O)SCCCCC[C@H](NC(=O)[C@@H]1CCCC(=O)N1)C(=O)Nc1ccccc1 [Example 43, Thioisobutyric acid S—{(S)-6-[((S)-6-oxo-piperidine-2-carbonyl)-amino]-6-phenylcarbamoyl-hexyl}ester]
IC50 [2]: 1 to 10 µM

BWL % (NCI-H460 NSCLC; [6]): 0% | BWL % [3]: 3% | BWL % (A2780 ovarian cancer): 4% | BWL % [5]: 0% | BWL % (HCT116 colon cancer): 1%
SMILES: O=C(CCCCCCC(=O)Nc1ccccc1)NO [SAHA, suberoylanilide hydroxamic acid, reference compound]
TVI % (NCI-H460 NSCLC; [6]): 27% | TVI % [3]: 21% | TVI % (A2780 ovarian cancer): 53% | IC50 [4]: 0.13 µM | TVI % [5]: 47% | TVI % (HCT116 colon cancer): 32%
